Earlier results, collected in US20210363253A1, “USE OF COMBINED TREATMENT OF PD-1 ANTIBODY AND APATINIB FOR TREATING TRIPLE NEGATIVE BREAST CANCER” (JIANGSU HENGRUI MEDICINE CO., LTD., priority 2017, published 2021).

Settings: with oxaliplatin, 5-Fu, docetaxel, doxorubicin; preclinical animal experiments

N#CC1(c2ccc(NC(=O)c3cccnc3NCc3ccncc3)cc2)CCCC1 [Apatinib]
efficacy of cytotoxic drugs in combination with Apatinib: significantly increase their efficacy
